Experimental data from PubChem BioAssay (NCI).
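Each compound was tested at five concentrations against cells in 96-well plates for 48 hours. At the GI50, growth is halved. The concentration for full growth arrest is given as TGI.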

Columns and labels:
Assay in all cases: growth of human tumour cells (NCI), 48 h
[1] = test system: MALME-3M melanoma
[2] = test system: SNB-75 CNS
[3] = test system: MDA-MB-468 breast
[4] = test system: HCT-15 colon
[5] = test system: SF-295 CNS
[6] = test system: NCI-H23 lung
[7] = test system: U251 CNS
[8] = test system: CAKI-1 renal
[9] = test system: HS 578T breast
[10] = test system: PC-3 prostate
[11] = test system: K-562 leukemia
[12] = test system: NCI-H460 lung
[13] = test system: CCRF-CEM leukemia
[14] = test system: MCF7 breast
[15] = test system: IGROV1 ovarian
[16] = test system: DU-145 prostate
[17] = test system: RXF 393 renal
[18] = test system: SK-MEL-5 melanoma
[19] = test system: UACC-62 melanoma
[20] = test system: EKVX NSCLC
[21] = test system: SW-620 colon
[22] = test system: KM12 colon
[23] = test system: HL-60(TB) leukemia
[24] = test system: NCI-H522 lung
[25] = test system: MDA-MB-435
[26] = test system: SF-268 CNS
[27] = test system: SK-OV-3 ovarian
[28] = test system: TK-10 renal
[29] = test system: SN12C renal
[30] = test system: SK-MEL-28 melanoma
[31] = test system: MOLT-4 leukemia
[32] = test system: SF-539 CNS
[33] = test system: HOP-62 NSCLC
[34] = test system: OVCAR-5 ovarian
[35] = test system: MDA-MB-231 breast
[36] = test system: SNB-19 CNS
[37] = test system: NCI-H226 lung
[38] = test system: 786-0 renal
[39] = test system: OVCAR-4 ovarian
[40] = test system: BT-549 breast
[41] = test system: OVCAR-8 ovarian
[42] = test system: UACC-257 melanoma
[43] = test system: A549 NSCLC
[44] = test system: SK-MEL-2 melanoma
[45] = test system: LOX IMVI melanoma
[46] = test system: ACHN renal
[47] = test system: HOP-92 NSCLC
[48] = test system: COLO 205 colon
[49] = test system: HCT-116 colon
[50] = test system: SR leukemia
[51] = test system: M14 melanoma
[52] = test system: HCC-2998 colon
[53] = test system: OVCAR-3 ovarian
[54] = test system: UO-31 renal
[55] = test system: A498 renal

CC(C)(C)Nc1nc2cc(Cl)c(Cl)cc2nc1S(C)(=O)=O
GI50 [1]: 1.64 µM | TGI [1]: 3.09 µM | GI50 [2]: 8.16 µM | TGI [2]: 24.4 µM | GI50 [3]: 1.64 µM | TGI [3]: 3.13 µM | GI50 [4]: 1.53 µM | TGI [4]: 3.03 µM | GI50 [5]: 14.6 µM | TGI [5]: 28.1 µM | GI50 [6]: 2.09 µM | TGI [6]: 5.07 µM | GI50 [7]: 11.1 µM | TGI [7]: 24.5 µM | GI50 [8]: 1.58 µM | TGI [8]: 3.01 µM | GI50 [9]: 7.29 µM | TGI [9]: 35.2 µM | GI50 [10]: 8.63 µM | TGI [10]: 24.6 µM | GI50 [11]: 1.05 µM | TGI [11]: 3.21 µM | GI50 [12]: 8.46 µM | TGI [12]: 22.8 µM | GI50 [13]: 0.307 µM | TGI [13]: 3.77 µM | GI50 [14]: 1.9 µM | TGI [14]: 4.23 µM | GI50 [15]: 12.2 µM | TGI [15]: 25.6 µM | GI50 [16]: 3.46 µM | TGI [16]: 12.1 µM | GI50 [17]: 1.77 µM | TGI [17]: 3.64 µM | GI50 [18]: 2.18 µM | TGI [18]: 5.77 µM | GI50 [19]: 6.98 µM | TGI [19]: 19.8 µM | GI50 [20]: 13.3 µM | TGI [20]: 27 µM | GI50 [21]: 1.48 µM | TGI [21]: 2.96 µM | GI50 [22]: 7.82 µM | TGI [22]: 24.7 µM | GI50 [23]: 4.03 µM | TGI [23]: 20.1 µM | GI50 [24]: 1.2 µM | TGI [24]: 2.63 µM | GI50 [25]: 1.88 µM | TGI [25]: 4.17 µM | GI50 [26]: 15.9 µM | TGI [26]: 36.4 µM | GI50 [27]: 13.3 µM | TGI [27]: 26.4 µM | GI50 [28]: 1.7 µM | TGI [28]: 3.19 µM | GI50 [29]: 3.74 µM | TGI [29]: 14.4 µM | GI50 [30]: 1.79 µM | TGI [30]: 3.33 µM | GI50 [31]: 0.411 µM | TGI [31]: 1.97 µM | GI50 [32]: 6.38 µM | TGI [32]: 19.3 µM | GI50 [33]: 14.9 µM | TGI [33]: 29.2 µM | GI50 [34]: 14.6 µM | TGI [34]: 28.4 µM | GI50 [35]: 3.11 µM | TGI [35]: 8.94 µM | GI50 [36]: 13.8 µM | TGI [36]: 26.9 µM | GI50 [37]: 11.4 µM | TGI [37]: 41.7 µM | GI50 [38]: 1.84 µM | TGI [38]: 3.47 µM | GI50 [39]: 2.96 µM | TGI [39]: 9.57 µM | GI50 [40]: 1.74 µM | TGI [40]: 3.41 µM | GI50 [41]: 3.95 µM | TGI [41]: 19.6 µM | GI50 [42]: 1.99 µM | TGI [42]: 4.28 µM | GI50 [43]: 13.5 µM | TGI [43]: 27.6 µM | GI50 [44]: 4.14 µM | TGI [44]: 16.1 µM | GI50 [45]: 1.35 µM | TGI [45]: 2.72 µM | GI50 [46]: 1.75 µM | TGI [46]: 3.35 µM | GI50 [47]: 2 µM | TGI [47]: 4.88 µM | GI50 [48]: 1.7 µM | TGI [48]: 3.28 µM | GI50 [49]: 1.67 µM | TGI [49]: 3.44 µM | GI50 [50]: 0.504 µM | TGI [50]: 2.74 µM | GI50 [51]: 1.71 µM | TGI [51]: 3.43 µM | GI50 [52]: 8.7 µM | TGI [52]: 20.9 µM | GI50 [53]: 1.89 µM | TGI [53]: 3.52 µM | GI50 [54]: 1.58 µM | TGI [54]: 2.95 µM | GI50 [55]: 19.2 µM | TGI [55]: 33.5 µM

O=C1NC(=NCCc2cccc(F)c2)S/C1=C\c1ccc2ncccc2c1
GI50 [3]: 1.18 µM | TGI [3]: > 20.4 µM

C=CCO[C@H]1CO[C@H]2[C@@H]1OC[C@@H]2Oc1ccc(Nc2ccnc(Nc3ccc(O[C@H]4CO[C@H]5[C@@H]4OC[C@@H]5OCC=C)c(Cl)c3)n2)cc1Cl
GI50 [3]: 1.62 µM | TGI [3]: 3.13 µM

COc1cccc(C2c3cc4c(cc3OC(C)(N3CCCC3)C2C)OCO4)c1O (stereo not drawn)
GI50 [3]: 4.66 µM | TGI [3]: > 100 µM

FC(F)(F)c1cccc(Nc2nc(-c3ccccc3)nc3ncccc23)c1
GI50 [3]: 2.42 µM | TGI [3]: 7.71 µM
